Read-outs that look alike come from different tables or passages of the source.
Tests used:
[1] = system: Acinetobacter baumannii (DSM 30007, ATCC 19606); assay: MIC broth dilution, aerobic bacteria; type: cell-based; details: 20 h at 37 °C, ± standard error, n ≥ 3
Procedure: (§1) The following strains were used and maintained at 37 °C in MHB (21 g/L Müller Hinton, pH 7.4) or TSY (30 g/L trypticase soy broth, 3 g/L yeast extract, pH 7.0–7.2) medium. Acinetobacter baumannii (DSM 30007, ATCC 19606) in MHB, Escherichia coli (DSM1116, ATCC 9637) in TSY, Klebsiella pneumoniae (DSM 11678, ATCC33495) in MHB, Pseudomonas aeruginosa PA7 (DSM 24068) in MHB, Enterococcus faecium (DSM 20477, ATCC 19434) in TSY, Staphylococcus aureus MRSA (DSM 11822, ICB 25701) in TSY). Minimum inhibitory concentration (MIC) values were determined following a standardized protocol in broth dilution assays. […] Starting inocula of 2–8 × 10^5 colony-forming units per ml in MHB or TSY media at 37 °C were used, and serial dilutions were carried out in 384-well microtiter plates in duplicate. […] The MIC values for the tested compounds were determined in three independent experiments by a curve-fitting procedure using the GraphPad Prism software (Graphpad Software, Inc.).

[2] = system: Klebsiella pneumoniae (DSM 11678, ATCC33495); assay: MIC broth dilution, aerobic bacteria; type: cell-based; details: 20 h at 37 °C, ± standard error, n ≥ 3, read-out: MIC, K. pneumoniae
Procedure: as §1

[3] = system: Enterococcus faecium (DSM 20477, ATCC 19434); assay: MIC broth dilution, aerobic bacteria; type: cell-based; details: 20 h at 37 °C, ± standard error; for MIC, E. faecium: n ≥ 3; for MIC: n ≥ 3, read-out: MIC, E. faecium
Procedure: as §1

[4] = system: Pseudomonas aeruginosa PA7 (DSM 24068); assay: MIC broth dilution, aerobic bacteria; type: cell-based; details: ± standard error, n ≥ 3, read-out: MIC, P.aeruginosa
Procedure: as §1

[5] = system: Staphylococcus aureus MRSA (DSM 11822, ICB 25701); assay: MIC broth dilution, aerobic bacteria; type: cell-based; details: 20 h at 37 °C, ± standard error, n ≥ 3
Procedure: as §1

[6] = system: Escherichia coli (DSM1116, ATCC 9637); assay: MIC broth dilution, aerobic bacteria; type: cell-based; details: 20 h at 37 °C, ± standard error, n ≥ 3
Procedure: as §1

A-549 lung cancer cells = assay: Antiproliferative assay (crystal violet); type: cell-based, human; details: 72 h exposure, ± standard deviation, n = 2–4, read-out: IC50, antiproliferative effects, A-549
Procedure: (§2) The antiproliferative effects were determined according to a previously published procedure. A volume of 100 µL of cell suspension of A549 cells, MDA-MB-231, HT-29 or Vero E6 cells was transferred into the wells of a 96-well plates and incubated at 37 °C under 5% CO2 for 72 h. […] The results were calculated as the mean values of three independent experiments, unless stated otherwise.

[7] = system: MDA-MB-231 breast cancer cells; assay: Antiproliferative assay (crystal violet); type: cell-based, human; details: 96 h exposure, ± standard deviation, n = 2–4, read-out: IC50, antiproliferative effects, MDA-MB-231
Procedure: as §2

[8] = system: HT-29 colon carcinoma cells; assay: Antiproliferative assay (crystal violet); type: cell-based, human; details: 72 h exposure, ± standard deviation, n = 2–4, read-out: IC50, antiproliferative effects, HT-29
Procedure: as §2

[9] = system: Vero E6 non-tumorigenic epithelial kidney cells; assay: Antiproliferative assay (crystal violet); type: cell-based, African green monkey; details: 72 h exposure, ± standard deviation, n = 2–4, read-out: IC50, antiproliferative effects, Vero E6
Procedure: as §2

[10] = target: T1, bacterial TrxR from E. coli (Escherichia coli, UniProt P0A9P4); assay: Inhibition of bacterial TrxR (E. coli), DTNB/5-TNB assay; type: biochemical; details: purified enzyme, 75 min incubation at 25 °C; means and standard deviations
T1 construct: purchased Sigma-Aldrich
T1 sequence (P0A9P4 whole entry): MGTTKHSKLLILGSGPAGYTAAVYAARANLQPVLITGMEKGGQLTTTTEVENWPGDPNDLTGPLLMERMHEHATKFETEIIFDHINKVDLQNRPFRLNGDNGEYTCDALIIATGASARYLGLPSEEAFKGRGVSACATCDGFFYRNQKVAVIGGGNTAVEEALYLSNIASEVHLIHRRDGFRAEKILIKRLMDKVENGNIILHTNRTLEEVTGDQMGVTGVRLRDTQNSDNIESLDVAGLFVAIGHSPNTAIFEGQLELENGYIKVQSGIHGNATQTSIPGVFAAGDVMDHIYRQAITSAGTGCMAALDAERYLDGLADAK
Procedure: The TrxR (E.coli) inhibition assay was performed according to a previously published procedure. It is partly based on the procedure developed by Lu et al.[35] and detects the formation of 5-TNB (5-thionitrobenzoic acid). Solutions of E. coli TrxR (35.4 U/mL) and of its substrate thioredoxin (Trx) E. coli (156 µg/mL) (both purchased from Sigma-Aldrich and diluted with distilled water) and fresh stock solutions of the test compounds (in DMF) were prepared (1c was administered as suspension). TE buffer (Tris–HCl 50 mM, EDTA 1 mM, pH 7.5) containing graded concentrations of the respective compounds (20 µL) or buffer without compounds (20 µL, as control) were mixed with TrxR solution (10 µL), Trx solution (10 µL), and a solution of NADPH (200 µM) in TE buffer (100 µL) in a well on a 96-well plate. As blank solution, 200 µM NADPH in TE buffer (100 µL) mixed with a DMF/buffer mixture (40 µL) was used (final concentrations of DMF: 0.5% v/v). The solutions on the 96-well plate were incubated for 75 min at 25 °C with moderate shaking. A volume of 100 µL of a reaction mixture (TE buffer containing 200 µM NADPH and 5 mM DTNB) was added to each well to initiate the reaction. After thorough mixing, the formation of 5-TNB was monitored by a microplate reader at 405 nm in 35 s intervals (10 measurements). The values were corrected by subtraction of the values for the blank solution. The increase in concentration of 5-TNB followed a linear trend (r^2 ≥ 0.990) and the enzymatic activities were calculated as the gradients (increase in absorbance per second) thereof. Absence of interference with the assay components was confirmed by a negative control experiment for each test compound. The highest test compound concentration was used and the enzyme solution was replaced by TE buffer for this purpose. The IC50 values were calculated as the concentration of the compound decreasing the enzymatic activity of the positive control by 50% and are presented as the means and standard deviations of independent repeated experiments.

[11] = system: aerobic Gram-positive and Gram-negative pathogenic bacteria strains; assay: MIC, summary over the panel of aerobic bacteria; type: cell-based; details: for MIC values against all bacteria strains: all strains of the panel
Procedure: as §1

[12] = system: A-549, HT-29, MDA-MB-231 and Vero E6 cells; assay: Antiproliferative assay, summary over all cell lines; type: cell-based; details: for IC50: all four cell lines, for 2c except MDA-MB-231, read-out: IC50 values, antiproliferative effects, all cell lines
Procedure: as §2

[13] = system: C. difficile strain VPI10463 (ATCC 43255), metronidazole-sensitive; assay: Antibacterial effects against C. difficile (anaerobic growth curves, OD600); type: cell-based, Clostridioides difficile
Procedure: (§3) (provided by Ulrich Nübel, DSMZ Braunschweig) were maintained in prereduced BHIS medium (37 g/L BHI, oxoid, 5% yeast extract, 1% L-cysteine) in a Coy-Laboratories anaerobic chamber (85% N2, 10% CO2, 5% H2) at 37 °C. Freshly prepared cultures were incubated until the exponential growth phase (OD600 = 0.2–0.4) and were adjusted to 1 × 10^6 cfu/mL before inoculation. The test compounds were dissolved in DMSO and by two-fold dilution steps concentrations in the range from 200 µM to 0.39 µM in BIHS medium were obtained. The solutions (100µL) were added to 100 µL of a diluted C. difficile culture (total volume: 200 µL in BIHS, 5 × 10^5 C. difficile, 100–0.195 µM test compound per well). The OD600-values over a period of 48 h were measured with a LogPhase 600 4-plate reader (BioTek) and compared with blank BHIS.

[14] = system: C. difficile strain IB136 (NCTC 14385), metronidazole-resistant; assay: as above; type: cell-based, Clostridioides difficile
Procedure: as §3

[15] = system: C. difficile strain 1296^ T (DSM 1296), metronidazole-sensitive; assay: as above; type: cell-based, Clostridioides difficile
Procedure: as §3

| Structure (SMILES) | MIC [2] | MIC, E. faecium [3] | MIC ([4]; 20 h at 37 °C) | MIC [6] | IC50 (A-549 lung cancer cells) | IC50 [7] | IC50 [8] | IC50 [9] | IC50 [10] | activity against Gram-negative strains (in words) ([11]; aerobic conditions) | MIC [1] | MIC, MRSA [5] | MIC, E. coli [6] | IC50 [12] | MIC values against all bacteria strains ([11]; aerobic conditions) | other results |
| --- | --- | --- | --- | --- | --- | --- | --- | --- | --- | --- | --- | --- | --- | --- | --- | --- |
| CC(=O)OC[C@H]1O[C@@H]([S-])[C@H](OC(C)=O)[C@@H](OC(C)=O)[C@@H]1OC(C)=O.CCP(CC)CC.[Au+] [Auranofin, reference compound] | > 30 µM | 0.6 ± 0.2 µM | > 30 µM | > 30 µM | 4.2 ± 0.6 µM | 1.2 ± 0.3 µM | 10.5 ± 4.8 µM | 2.6 ± 0.1 µM | 0.21 ± 0.03 µM | lower active or inactive |  |  |  |  |  | MIC, A. baumannii [1]: 7.8 ± 7.1 µM; MIC [5]: < 0.2 µM; activity against Gram-positive strains (in words) ([11]; aerobic conditions): strong activity |
| Cn1[c](=[Au][Cl])n(CC(=O)O)c2ccccc21 [Compound 2b] | > 151.4 µM |  | > 151.4 µM |  | > 100 µM | 65.7 ± 8.2 µM | > 80 µM | > 100 µM | 0.364 ± 0.103 µM |  | > 151.4 µM | 151.4 ± 0.0 µM | 151.4 ± 0.0 µM | > 60 µM | > 100 µM | MIC [3]: > 151.4 µM; antibacterial effect, dosages from 0.2 to 100 µM ([13]; strain VPI10463 (Figure S2)): inactive; antibacterial effect, dosages from 0.2 to 100 µM ([14]; strain IB136 (Figure S3)): inactive; antibacterial effect, dosages from 0.2 to 100 µM ([15]; strain 1296T (Figure S1)): inactive |
| Cc1ncc([N+](=O)[O-])n1CCO [Metronidazole, reference compound] |  |  |  |  |  |  |  |  |  |  |  |  |  |  | not active | MIC ([1]; Acinetobacter baumannii): > 350 µM; MIC ([2]; Klebsiella pneumoniae): > 350 µM; MIC ([3]; Enterococcus faecium): > 350 µM; MIC ([4]; Pseudomonas aeruginosa, DSM24068, 20 h at 37 °C): > 350 µM; MIC ([5]; Staphylococcus aureus): > 350 µM; MIC ([6]; Escherichia coli): > 350 µM; IC50 (A-549 lung cancer cells; Homo sapiens, A549): > 100 µM; IC50 ([7]; Homo sapiens, MDA-MB-231): > 100 µM; IC50 ([8]; Homo sapiens, HT-29): > 100 µM; IC50 ([9]; Chlorocebus sabaeus, Vero C1008): > 100 µM; IC50 ([12]; Homo sapiens): > 100 µM; antibacterial effect at 6.25 µM ([13]; strain VPI10463, 6.25 µM, recovery of growth after extended exposure): effective inhibitors; concentration leading to a complete block of bacterial growth without recovery ([14]; metronidazole-resistant strain IB136, up to 100 µM, 48 h): no dosage of the drug could terminate the proliferation; antibacterial effect at 6.25 µM ([14]; resistant strain IB136, 6.25 µM): completely inactive; antibacterial effect at 6.25 µM ([15]; strain 1296T, 6.25 µM, recovery of growth after extended exposure): effective inhibitors |
| CCOC(=O)Cn1[c]([Au-][Cl])[n+](C)c2ccccc21 [Compound 2a, Chlorido-(1-(2-ethoxy-2-oxoethyl)-3-methylbenzimidazol-2-ylidene)gold(I)] |  |  |  |  | 26.1 ± 3.7 µM | 9.6 ± 2.7 µM | 19.9 ± 5.1 µM | 25.8 ± 4.6 µM |  |  |  |  |  | 9 to 26 µM |  | cytotoxicity of 2a relative to 2c (times stronger) ([12]; in all cases (all cell lines)): 3–4 |
| CCn1[c]([Au-][Cl])[n+](CC)c2cc(C(=O)O)ccc21 [Compound 1b, Chlorido-(1,3-diethyl-5-carboxybenzimidazol-2-ylidene)gold(I)] | > 142.0 µM | 142.0 ± 0.0 µM | > 142.0 µM |  | > 75 µM | 74.6 ± 1.3 µM | 66.3 ± 8.8 µM | > 100 µM | 0.297 ± 0.031 µM |  | > 142.0 µM | 142.0 ± 0.0 µM | 142.0 ± 0.0 µM | > 60 µM | > 100 µM |  |
| CCn1[c](=[Au][Cl])n(CC)c2cc(C(=O)OCCn3c([N+](=O)[O-])cnc3C)ccc21 [Compound 1c, Chlorido-(1,3-diethyl-5-((2-(2-methyl-5-nitroimidazol-1-yl)ethoxy)carbonyl)benzimidazol-2-ylidene)gold(I)] | > 106.0 µM | 44.2 ± 15.3 µM | > 106.0 µM | > 106.0 µM | > 100 µM | > 100 µM | > 100 µM | > 100 µM | 0.145 ± 0.038 µM | inactive | > 106.0 µM | 106.0 ± 0.0 µM |  | > 60 µM |  | solubility in organic solvents (Solubility observations): limited solubility in organic solvents; MIC values against Gram-positive strains ([11]; MRSA and E. faecium, except for 1c in MRSA): 37 to 44 µM |

Reference: paper PMC11343806 (Journal of Biological Inorganic Chemistry, 2024)
